Measured values reported in US20090209606A1 (priority 2004, published 2009).
Like-named read-outs stand apart in the source and are kept apart here. Residues, ends and D or L forms follow the SMILES beside them. *: point of attachment. Cbz = O=C(OCc1ccccc1)*; CH2F = FC*

Legend:
[1] = test system: alkylguanyl transferase (AGT) in SU-DHL-1 cells
[2] = test system: MCF-7/ADR cells and p53 deficient RK0-E6 colon adenocarcinoma cells; assay type: cell-based
[3] = test system: relapsed indolent or transformed rituximab-refractory B-cell NHL; test: Phase II multicenter trial; assay type: in vivo, human
Excerpt: This study evaluated the efficacy and toxicity of bendamustine in patients with NHL who have relapsed or are refractory to previous chemotherapy regimens. Patients refractory to rituximab had disease progression within 6 months of treatment.
Methods: This Phase II multicenter trial enrolled patients with relapsed indolent or transformed rituximab-refractory B-cell NHL from 17 sites in the US and Canada. […] Median age of patients was 63 years (range: 38-84) and 88% had Stage III/IV disease. Patients received bendamustine 120 mg/m^2 IV over 30-60 minutes, days 1 and 2, every 21 days for up to 6 cycles. Response was measured using the International Working Group criteria.

gamma-H2AX histone = test: H2AX foci formation (immunofluorescence); settings: 50 μM
Experimental: Cell were grown on Lab-Tek chamber slides (Nalge Nunc Intl., Naperville, Ill.) in RPMI 1640 media supplemented with 10% FBS. […] The cells were incubated for 30 minutes at 37° C. and then washed two times with PBS. They were incubated for an additional 4 hours at 37° C. The cells were then washed twice with 1×PBS and incubated 10 minutes in −20° C. 100% methanol to fix the cells. They were then washed three times for five minutes each with 1×PBS. They were incubated at room temperature for 1 hour in blocking buffer (10% FBS in 1×PBS, 1% BSA). The slides were incubated at 4° C. with rocking overnight with the primary polyclonal anti-H2AX antibody (R & D Systems, Minneapolis, Minn.). The antibody was diluted in blocking buffer at a ratio of 1:10,000. Slides were washed three times with 1×PBS and incubated with Alexa Flour 488 goat anti-rabbit secondary antibody (1:4000) (Molecular Probes, Eugene, Oreg.) for 45 minutes at room temperature with gentle shaking. Slides were washed three times with 1×PBS and then the chambers removed and SlowFade Light Antifade with DAPI (Molecular Probes) was added to the cells and coverslips sealed on the slides. Analysis was performed using a motorized Zeiss AxioPlan 2e imaging microscope with DIC optics and fluorescence, a Zeiss AxioCam HRm camera and Zeiss Axiovision software Version 4.2.

SU-DHL-1 cells [4] = test: cells; assay type: cell-based; settings: Homo sapiens
PARP in SU-DHL-1 cells = assay type: cell-based
SU-DHL-1 cells [5] = assay type: cell-based
SU-DHL-1 cells [6] = assay type: cell-based; remark: listed apart in the source
[7] = test system: Ape-1 base excision repair enzyme; assay type: cell-based
SU-DHL-1 cells [8] = assay type: cell-based; remark: listed apart in the source
SU-DHL-1 cells [9] = test: Cell cycle analysis (propidium iodide, FACS); settings: SU-DHL-1, eight hours, equitoxic concentrations (bendamustine 50 μM)
[10] = test system: 60 human tumor cell lines
[11] = SU-DHL-1, 72 h, read-out: Ave IC50
[12] = SU-DHL-1, 72 h, read-out: Ave IC90

O=NN(CCCl)C(=O)NCCCl [carmustine]
effect of O6-benzylguanine on cytotoxic potency [1]: significantly sensitizes

COC(=O)C[C@H](NC(=O)[C@H](C)NC(=O)[C@@H](NC(=O)OCc1ccccc1)C(C)C)C(=O)CF [zVAD-fmk] (Cbz-Val-Ala-Asp(OMe)-CH2F)
bendamustine-induced increases in Annexin-V-positive cells [2]: able to inhibit

Cl.Cn1c(CCCC(=O)O)nc2cc(N(CCCl)CCCl)ccc21 [Bendamustine, 4-{5-[bis(2-chloroethyl)amino]-1-methyl-2-benzimidazolyl} butyric acid hydrochloride]
objective response ([3]; 15 patients refractory to prior alkylator treatment): 67%
complete response ([3]; ITT population): 25%
disease progression ([3]; ITT population): 14%
partial response ([3]; ITT population): 49%
stable disease ([3]; ITT population): 12%
overall objective response rate (ORR) ([3]; ITT population, 120 mg/m^2 IV days 1 and 2 every 21 days): 74%
median duration of response ([3]; all patients): 6.6 months
median duration of response ([3]; indolent patients): 9.3 months
toxicity ([3]; single agent, heavily pretreated patients): acceptable toxicity
median duration of response ([3]; transformed patients): 2.4 months
micronucleation (nuclear morphology, DAPI) ([2]; 50 μM, alone or with 20 μM zVAD-fmk, two or three days): increased incidence of micronucleation
time to detectable intranuclear H2AX foci (gamma-H2AX histone): ≤ 30 min
IC50 (SU-DHL-1 cells [4]; [11]): 33.2 µM
IC90 (SU-DHL-1 cells [4]; [12]): 56.3 µM
IC50 (SU-DHL-1 cells [4]; SU-DHL-1, read-out: IC50 concentration): 25 µM
PARP cleavage (PARP in SU-DHL-1 cells): Maximal PARP cleavage
loss of viability after brief exposure and wash-out (SU-DHL-1 cells [5]): extensive loss of viability
Fen1 mRNA regulation (SU-DHL-1 cells [6]): upregulated
PLK-1 and Aurora A kinase (AurkA) expression (SU-DHL-1 cells [6]): down-regulated
down-regulation of mRNA expression of PLK-1, Aurora Kinases A and B, cyclin B1 (SU-DHL-1 cells [6]): 60 to 80%
induction of p21 and NOXA mRNA (SU-DHL-1 cells [6]): induced
up-regulation of Exo1 expression (SU-DHL-1 cells [6]): 2.5 fold
effect of O6-benzylguanine on cytotoxic potency [1]: not enhanced
change of IC50 with methoxyamine addition [7]: reduced approximately four-fold
PARP protein expression (SU-DHL-1 cells [8]): dramatic reduction
expression of total p53 (SU-DHL-1 cells [8]): strong increase
protein expression of Bax (SU-DHL-1 cells [8]): increase
up-regulation of Ser-15-phosphorylated p53 (SU-DHL-1 cells [8]): 8 fold
S-phase distribution increase (SU-DHL-1 cells [9]): over 40%

O=P1(N(CCCl)CCCl)NCCCO1 (centres unmarked) [cyclophosphamide]
effect of O6-benzylguanine on cytotoxic potency [1]: Opposite results
S-phase distribution increase (SU-DHL-1 cells [9]): ~15%

N[C@@H](Cc1ccc(N(CCCl)CCCl)cc1)C(=O)O [melphalan]
PARP cleavage (PARP in SU-DHL-1 cells): No PARP cleavage
loss of viability after brief exposure and wash-out (SU-DHL-1 cells [5]): minimal loss of viability

CN(C)/N=N/c1[nH]cnc1C(N)=O [DTIC, Dacarbazine, Dacarbazine]
Correlation (PCC) with bendamustine, LC50 [10]: 0.792 (LC50)

O=C(O)CCCc1ccc(N(CCCl)CCCl)cc1 [Chlorambucil, chlorambucil]
IC50 (SU-DHL-1 cells [4]; [11]): 3.4 µM
IC90 (SU-DHL-1 cells [4]; [12]): 6.2 µM
IC90 (SU-DHL-1 cells [4]; SU-DHL-1, read-out: IC90 concentration): 5 µM
IC50 (SU-DHL-1 cells [4]; SU-DHL-1, read-out: equitoxic (IC50) concentrations): 4 µM
PARP cleavage (PARP in SU-DHL-1 cells): No PARP cleavage
loss of viability after brief exposure and wash-out (SU-DHL-1 cells [5]): minimal loss of viability
PLK-1 and Aurora A kinase (AurkA) expression (SU-DHL-1 cells [6]): No changes
down-regulation of mRNA expression of PLK-1, Aurora Kinases A and B, cyclin B1 (SU-DHL-1 cells [6]): minor effect
induction of p21 and NOXA mRNA (SU-DHL-1 cells [6]): much lower extent
up-regulation of Exo1 expression (SU-DHL-1 cells [6]): 1.8 fold
PARP protein expression (SU-DHL-1 cells [8]): no changes
expression of total p53 (SU-DHL-1 cells [8]): small increase
up-regulation of Ser-15-phosphorylated p53 (SU-DHL-1 cells [8]): no changes
S-phase distribution increase (SU-DHL-1 cells [9]): approximately 20%
